In brackets after ≈: the same amount, converted by molar mass. Like-named read-outs stand apart in the source and are kept apart here. Square brackets hold non-standard residues; d marks the D form. Peptide text beside a SMILES is read from it. Gly(N(CH2)2(3-indolyl)) = O=C(O)CNCCc1c[nH]c2ccccc12; Nspe = C[C@H](NCC(=O)O)c1ccccc1; Nlys = NCCCCNCC(=O)O
Columns and labels:
[1] = tested on: S. aureus ATCC 25923; format: cell-based, Staphylococcus aureus
Outline: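 MIC = lowest peptoid concentration with no turbidity on visual inspection. Bacteria (≈2–5 × 10^5 CFU mL^−1) were exposed in MHB2 with 0.02% BSA and 0.001% acetic acid to six two-fold serial dilutions, top concentration 25 µM; triplicates.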

[2] = tested on: MRC-5 human lung fibroblast cells; format: cell-based
Procedure: 4. Cell culture and cytotoxicity test using MTS assay
(Seoul, South Korea), human keratinocytes (HaCaT) were provided by the Skin Research Institute R&D Center of Amore Pacific Company (Yongin, South Korea). All cells were grown in Dulbecco's modified Eagle’s medium (DMEM) supplemented with 10% fetal bovine serum at 37 °C in an atmosphere containing 5% CO2. The 3-(4,5-dimethylthiazol-2- […]
assays were used to determine the effects of peptoids on cell growth.[4] Aliquots (100 µL) of media containing 1.3×10^4 MRC-5 cells/mL or 3×10^4 HaCaT cells/mL were distributed into each well of a 96-well plate (Eppendorf, Hamburg, Germany). The cells were allowed to attach and were grown in a humidified atmosphere containing 5% CO2 at 37 °C for 24 h.
When the cell density reached approximately 70% confluency, the medium was replaced with serial dilutions of the peptoid stock in DMEM and incubated for an additional 24 h. At this point, 20 µL of the CellTiter 96 aqueous non-radioactive cell proliferation assay reagent (Promega, Madison, WI, USA), which contains the tetrazolium compound, was added to each well. Plates were incubated for 4 h at 37 °C to allow time for metabolism. The MTS-formazan products in viable cells were measured at 490 nm using a microplate reader, and the percentage of cell viability (%) was calculated by comparing readings to the values of untreated wells. Percentage values of cell viability were calculated as A/(A control)×100, where A is the absorbance of the test well and A control is the average absorbance of wells containing untreated cells. […]

[3] = tested on: E. faecalis KCTC 3511; format: cell-based
[4] = S9 fraction stability assay; format: in vitro ADME; conditions: NADPH, 100 mM Tris-HCl pH 7.4, […] MgCl2, 37 °C, 24 h incubation, HPLC or LC-MS, compared to pexiganan
Procedure: 200 μL NPN dye was added to wells of a 96 well plate to produce a final concentration of 10 μM, and the background fluorescence was recorded (λex = 350 nm, λem = 420 nm). Aliquots of peptoids were added to the well, and fluorescence was recorded as a function of time until there was no further increase in fluorescence. Increases of the permeability of the outer membrane after the addition of peptoids was reflected by increased fluorescence values as a result of NPN incorporation into the membrane.
The permeability of the inner membrane was determined using E. coli ML-35 cells […]
The intact bacterial inner membrane is non-permeable to o-nitrophenyl-β-D-galactopyranoside (OPNG), a chromogenic substrate of the β-galactosidase.
Following damage to the inner membrane, OPNG enters the cells and is metabolized by β-galactosidase creating a chromogenic […]. […] The hydrolysis of ONPG and generation of o-nitrophenol over time were monitored as absorbance change at 405 nm following the addition of peptoids.
The resistance of peptoids against metabolic enzyme degradation was measured by an S9 fraction assay. […] Quenched samples were centrifuged for 5 minutes at 1200 rpm and analyzed by analytical HPLC or LC-MS.
Protein extraction and quantification using Bradford assay […]

[5] = tested on: E. coli ATCC 25922; assay: Thioflavin S fluorescence imaging of intracellular aggregation; format: cell-based; conditions: 29 and peptoid 1 at 4 × MIC, control peptides 2 × MIC
[6] = tested on: P. aeruginosa MDR-198; format: cell-based
[7] = tested on: E. coli ESBL 63103; format: cell-based
[8] = tested on: K. pneumonia ESBL 61962; format: cell-based
[9] = tested on: S. aureus MRSA C623; format: cell-based
[10] = Table S2, broth dilution, MHB2, 37 °C 24 h, max 25 µM, mean of triplicate
[11] = Table S3, counter-ion exchange series, mean of triplicate

| Structure (SMILES) | MIC S. aureus ATCC25923 [1, 10] [µM] | MIC S. aureus ATCC25923 [1, 11] [µM] | LC50 MRC-5 ([2]; MTS assay, 24 h exposure in DMEM, concentration killing 50% of cells) [µM] | MIC E. faecalis KCTC 3511 ([3]; gram-positive pathogenic strain, mean of triplicates) [µM] | stability in human liver S9 fraction [4] | Th S fluorescence (intracellular biomass aggregation) [5] | LC50 MRC-5 [2] [µM] | MIC E. faecalis KCTC 3511 ([3]; KCTC 3511) [µM] | MIC P. aeruginosa MDR-198 [6] [µM] | MIC E. coli ESBL 63103 [7] [µM] | MIC K. pneumonia ESBL 61962 [8] [µM] | MIC S. aureus MRSA C623 [9] [µM] | MIC S. aureus ATCC25923 ([1]; ATCC 25923) [µM] |
| --- | --- | --- | --- | --- | --- | --- | --- | --- | --- | --- | --- | --- | --- |
| C[C@@H](c1ccccc1)N(CC(N)=O)C(=O)CN(C(=O)CN(CCCCN)C(=O)CN(C(=O)CN(C(=O)CN(CCCCN)C(=O)CN(C(=O)CN(C(=O)CN(CCCCN)C(=O)CN(C(=O)CN(C(=O)CNCCCCN)[C@@H](C)c1ccccc1)[C@@H](C)c1ccccc1)[C@@H](C)c1ccccc1)[C@@H](C)c1ccccc1)[C@@H](C)c1ccccc1)[C@@H](C)c1ccccc1)[C@@H](C)c1ccccc1 [peptoid 1, reference compound] (H-[Nlys][Nspe][Nspe][Nlys][Nspe][Nspe][Nlys][Nspe][Nspe][Nlys][Nspe][Nspe]-NH2) | 1.6 (≈ 2.91 µg/mL) | 1.6 (≈ 2.91 µg/mL) | 8.1 | 0.8 (≈ 1.46 µg/mL) | superior stability | enhanced Th S fluorescence | – | – | – | – | – | – | – |
| C[C@@H](c1ccccc1)N(CC(=O)N(CCCCN)CC(=O)N(CC(=O)N(CC(=O)N(CCCCN)CC(=O)N(CC(=O)N(CC(=O)N(CCCCN)CC(=O)N(CCc1c[nH]c2ccccc12)CC(=O)N(CCc1c[nH]c2ccccc12)CC(N)=O)[C@@H](C)c1ccccc1)[C@@H](C)c1ccccc1)[C@@H](C)c1ccccc1)[C@@H](C)c1ccccc1)C(=O)CN(C(=O)CNCCCCN)[C@@H](C)c1ccccc1 [peptoid 11] (H-[Nlys][Nspe][Nspe][Nlys][Nspe][Nspe][Nlys][Nspe][Nspe][Nlys][Gly(N(CH2)2(3-indolyl))][Gly(N(CH2)2(3-indolyl))]-NH2) | 1.6 (≈ 3.04 µg/mL) | 1.6 (≈ 3.04 µg/mL) | – | – | – | – | 6.9 | <0.8 | 6.3 to 12.5 | 3.1 to 6.3 | 6.3 to 12.5 | 3.1 to 6.3 | – |
| C[C@@H](c1ccccc1)N(CC(=O)N(CCCCN)CC(=O)N(CCc1c[nH]c2ccccc12)CC(=O)N(CCc1c[nH]c2ccccc12)CC(N)=O)C(=O)CN(CCCCN)C(=O)CN(CCCCN)C(=O)CN(C(=O)CN(C(=O)CN(CCCCN)C(=O)CN(C(=O)CN(C(=O)CNCCCCN)[C@@H](C)c1ccccc1)[C@@H](C)c1ccccc1)[C@@H](C)c1ccccc1)[C@@H](C)c1ccccc1 [peptoid 29] (H-[Nlys][Nspe][Nspe][Nlys][Nspe][Nspe][Nlys][Nlys][Nspe][Nlys][Gly(N(CH2)2(3-indolyl))][Gly(N(CH2)2(3-indolyl))]-NH2) | 6.3 (≈ 11.7 µg/mL) | – | – | – | superior stability | significantly increased emission | – | 3.1 (≈ 5.78 µg/mL) | 6.3 to 12.5 | ≥25 | >25 | 3.1 to 6.3 | 12.5 (≈ 23.3 µg/mL) |

Source: paper PMC10460844, “Real‐Time Monitoring of Multitarget Antimicrobial Mechanisms of Peptoids Using Label‐Free Imaging with Optical Diffraction Tomography” (Advanced Science, 2023)
